From ChEMBL document CHEMBL5356936, “Restoring susceptibility to aminoglycosides: identifying small molecule inhibitors of enzymatic inactivation” (RSC Med Chem, 2023) come the findings set out here.

Structures are written as SMILES.

Assay [1] can be described thus: Inhibition of Aminoglycoside N-acetyltransferases (unknown origin).
The nature of assay [2]: Inhibition of Histone acetyltransferase in human Huh-7.5.1 cells assessed as hepatitis C virus-induced EGF mRNA level measured after 72 hrs. The conditions noted are these: Huh-7.5.1, 72 h.

A word on the IC50: it is the concentration needed to halve the response being measured. Regarding `CC(CCN[C@H](CN[C@H](CO)CN1CCC[C@H]1CN[C@H](CN)c1ccccc1)c1ccccc1)c1ccccc1` (some centres not stated), in assay [1], half-maximal inhibition (IC50) required 2.1 µM.

As to `O=C(CCCN1CCC(O)(c2ccc(Cl)cc2)CC1)c1ccc(F)cc1` [HALOPERIDOL], the 50% inhibitory concentration (IC50) in assay [2] amounted to 0.39 µM.
